Assay results from patent publication US20090325891A1, “Cartilage regeneration-promoting agent” (EISAI FOOD & CHEMICAL CO., LTD., priority 2006, published 2009).
Where “and” joins values, the source holds several entries; their conditions need not be identical. Identical values can stand only once.

What was measured:
[1] = Observation of general conditions and body weight; type: in vivo, rabbit
Method: (§1) After the formation of injury to articular cartilage, for the HT group, the product containing 20% by mass of hydroxytyrosol obtained in Production Example 1 was dissolved in tap water and administered using a water bottle at a rate of 500 mg/kg (100 mg/kg of hydroxytyrosol) per day for 21 days. After making sure that all of the water containing the drug was taken in, rabbits were fed with sterile tap water. The control was fed with sterile tap water ad libitum.
During the experimental period, diarrhea, appetite, and hair gloss or coat color of each rabbit were observed. In addition, body weight was measured per week.
(§2) In the same way as in Example 1, the cartilage regeneration-promoting effects were investigated with respect to hydroxytyrosol (100 mg/kg per day, HT group) and with respect to glucosamine hydrochloride (800 mg/kg per day, hereinafter, GAH group) for comparison. The control group was set in the same way as in Example 1.

[2] = system: Rabbit chondrocytes; assay: Hyaluronic acid production in rabbit chondrocytes; type: cell-based; conditions: culture supernatant, per number of viable cells; 12 days culture; hydroxytyrosol 100 ng/ml, glucosamine hydrochloride 4 μg/ml
Method: The promoting effects of hydroxytyrosol and glucosamine hydrochloride on the production of glycosaminoglycan and on the production of hyaluronic acid in chondrocytes were evaluated. Rabbit chondrocytes (rabbit articular chondrocytes in primary culture, F-8, Cell Garage Co., Ltd.) were washed with phosphate buffered saline solution, and then cells were released with 0.05% trypsin-EDTA solution. The released chondrocytes were cultured in DMEM medium containing 10% FBS, 100 U/ml penicillin, 100 μg/ml streptomycin, 100 μM trisodium ascorbyl-2-phosphate (available from SIGMA-ALDRICH Corp.), and 25 mM HEPES (available from Invitrogen Corporation) at 37° C. in a humidified condition with 5% CO2. […] For each group after 12 days culture, the number of viable cells was determined by WST assay. The percentage of the amount of glycosaminoglycan or hyaluronic acid produced by each experimental group, relative to the control group, was calculated according to the following formula: ((amount produced by each experimental group/number of cells of each experimental group)×100)/(amount produced by the control group/number of cells of the control group). The supernatant of cultured cells of each group was collected, and the amount of hyaluronic acid produced was measured using a measurement kit (hyaluronic acid measurement kit, available from Seikagaku Corporation).

[3] = system: lateral vastus muscles and femoral biceps muscles; assay: Muscle weight ratio (injured side vs opposite side) in rabbit articular cartilage injury model; type: in vivo; conditions: for Muscle weight ratio Femoral biceps muscle, Mean / Muscle weight ratio Lateral vastus muscle, Mean: group mean, 6 rabbits; for Muscle weight ratio Femoral biceps muscle / Muscle weight ratio Lateral vastus muscle: individual rabbits, injured side vs opposite side
Method: The rabbit articular cartilage injury model was prepared based on the method of Hashida et. al. (See, Macromolecular Bioscience, 3, (2003) 596-603), and Tamai et. al. (See, Carbohydrate Polymers, 48, (2002) 369-378, and Carbohydrate Polymers, 54, (2003) 251-262).
Initially, each animal was anesthetized by injecting pentobarbital sodium (40 mg/kg) intraperitoneally. Next, hairs at the knee joint of the left hind limb of the animal were clipped and disinfected with 0.5% chlorhexidine gluconate solution and 70% ethanol solution. Then, an incision was made on the skin on the lateral portion of the knee joint from the central part of the femur toward the tibial tuberosity. The articular capsule was exposed and incised. Further, the knee joint was exposed completely by dislocating the patella toward the medial side. Three holes of 2 mm size in diameter and 4 mm in depth were made by using a handdrill one at the medial trochlear ridge and two at the trochlear sulcus of the femur. The incised portion was washed with sterile saline solution and the articular capsule, and at the same time, the subcutaneous tissues and the skin were sutured with a synthetic absorbent thread and with nylon thread, respectively. During one week after the operation, the sutured portion of the skin was disinfected by povidone-iodine once a day and 10 mg/kg of oxytetracycline hydrochloride was subcutaneously administered twice a day.
as §1
For each animal, left and right lateral vastus muscles and femoral biceps muscles were collected, and weights were measured. The muscle weight ratio was calculated by comparing the side, in which cartilage injury was made, with the opposite side, and Student's t-test was performed between the control group and the HT group.
as §2

[4] = system: Rabbit chondrocytes; assay: Glycosaminoglycan production in rabbit chondrocytes; type: cell-based; conditions: per number of viable cells; 12 days culture; hydroxytyrosol 100 ng/ml, glucosamine hydrochloride 4 μg/ml
Method: The promoting effects of hydroxytyrosol and glucosamine hydrochloride on the production of glycosaminoglycan and on the production of hyaluronic acid in chondrocytes were evaluated. Rabbit chondrocytes (rabbit articular chondrocytes in primary culture, F-8, Cell Garage Co., Ltd.) were washed with phosphate buffered saline solution, and then cells were released with 0.05% trypsin-EDTA solution. The released chondrocytes were cultured in DMEM medium containing 10% FBS, 100 U/ml penicillin, 100 μg/ml streptomycin, 100 μM trisodium ascorbyl-2-phosphate (available from SIGMA-ALDRICH Corp.), and 25 mM HEPES (available from Invitrogen Corporation) at 37° C. in a humidified condition with 5% CO2. […] For each group after 12 days culture, the number of viable cells was determined by WST assay. The percentage of the amount of glycosaminoglycan or hyaluronic acid produced by each experimental group, relative to the control group, was calculated according to the following formula: ((amount produced by each experimental group/number of cells of each experimental group)×100)/(amount produced by the control group/number of cells of the control group). The amount of glycosaminoglycan produced by the above-mentioned cultured cells was measured using a measurement kit (acid mucopolysaccharide quantification kit, available from Cell Garage Co., Ltd.).

[5] = Example 2, hydrochloride, female rabbits
[6] = Example 2, hydrochloride, male rabbits

SMILES: Cl.N[C@H]1C(O)O[C@H](CO)[C@@H](O)[C@@H]1O (stereo partly drawn) [GAH group, glucosamine hydrochloride, reference compound]
- Body weight changes vs control group ([1]; Example 2): almost the same as that of the control group
- general conditions ([1]; Example 2, HT 100 mg/kg per day, GAH 800 mg/kg per day): change in general conditions was not observed
- amount of hyaluronic acid produced compared to the control group [2]: 127.4%
- muscle weight of the femoral biceps muscle (in words) ([3]; Example 2): marked decrease
- muscle weight of the lateral vastus muscle (in words) ([3]; Example 2): slight decrease
- Muscle weight ratio Femoral biceps muscle, Mean ([3]; Example 2, control 83.80): 83.62%
- Muscle weight ratio Lateral vastus muscle, Mean ([3]; Example 2, control 91.91): 92.03%
- Muscle weight ratio Femoral biceps muscle [3, 5]: 78.13% and 86.21% and 65.10%
- Muscle weight ratio Lateral vastus muscle [3, 5]: 82.24% and 96.46% and 90.85%
- Muscle weight ratio Femoral biceps muscle [3, 6]: 92.37% and 86.12% and 93.81%
- Muscle weight ratio Lateral vastus muscle [3, 6]: 98.02% and 89.59% and 94.99%
- amount of glycosaminoglycan produced compared to the control group [4]: 147.0%

SMILES: OCCc1ccc(O)c(O)c1 [HT group, 2-(3,4-Dihydroxyphenyl)ethanol]
- Body weight changes vs control group ([1]; rabbit, in vivo): almost the same as that of the control group
- body weight change during test period vs control group ([1]; rabbit, in vivo): significant difference was not observed
- general conditions (diarrhea, appetite, hair gloss or coat color) ([1]; rabbit, in vivo, 100 mg/kg): marked change was not observed
- amount of hyaluronic acid produced compared to the control group [2]: 82.9%
- muscle weight of the femoral biceps muscle (in words) ([3]; Example 1): little decrease
- muscle weight of the lateral vastus muscle (in words) ([3]; Example 1): decreased slightly
- Muscle weight ratio Lateral vastus muscle, Mean ([3]; Example 1, control 88.84): 95.93%
- Muscle weight ratio Femoral biceps muscle, Mean ([3]; Example 1, control 88.99): 100.08%
- Muscle weight ratio Femoral biceps muscle ([3]; Example 1, female rabbits): 100.18% and 98.45% and 93.46%
- Muscle weight ratio Lateral vastus muscle ([3]; Example 1, female rabbits): 105.30% and 96.92% and 80.89%
- Muscle weight ratio Femoral biceps muscle ([3]; Example 1, male rabbits): 94.80% and 106.36% and 107.22%
- Muscle weight ratio Lateral vastus muscle ([3]; Example 1, male rabbits): 93.29% and 95.10% and 104.10%
- muscle weight of the femoral biceps muscle (in words) ([3]; Example 2): little decrease
- muscle weight of the lateral vastus muscle (in words) ([3]; Example 2): little decrease
- Muscle weight ratio Femoral biceps muscle, Mean ([3]; Example 2, control 83.80): 100.59%
- Muscle weight ratio Lateral vastus muscle, Mean ([3]; Example 2, control 91.91): 98.48%
- Muscle weight ratio Femoral biceps muscle ([3]; Example 2, female rabbits): 90.91% and 111.86% and 93.42%
- Muscle weight ratio Lateral vastus muscle ([3]; Example 2, female rabbits): 94.98% and 98.56% and 92.43%
- Muscle weight ratio Femoral biceps muscle ([3]; Example 2, male rabbits): 101.37% and 104.66% and 101.31%
- Muscle weight ratio Lateral vastus muscle ([3]; Example 2, male rabbits): 84.93% and 111.10% and 108.90%
- amount of glycosaminoglycan produced compared to the control group [4]: 119.8%
